The term inhibition denotes the relative decrease from the control value, in per cent.

Each structure is given as a SMILES string. Counter-ions that a name gives are not always drawn.

For experiment [1], the target named is T1, Aurora A (Homo sapiens (Human), UniProt O14965). The experiment in a line: Aurora A inhibition assay (Z-Lyte). It counts as biochemical.
For experiment [2], the system named is AMPKalpha. The experiment in a line: Kinase selectivity assay (CEREP HTRF panel). Type of experiment: biochemical, human. On the technique in general: TR-FRET usually uses a lanthanide donor and a delayed reading to cut background.
For experiment [3], the target named is T2, FLT3 (Homo sapiens (Human), UniProt P36888). Nature of the experiment: Kinase selectivity assay (CEREP HTRF panel). Type of experiment: biochemical.
Method: (§1) The assays were performed using standard HTRF assay methods as documented by CEREP against the human orthologues of Ab1 kinase, Akt1/PKBa, AMPKa, BMX kinase (Etk), Brk, CaMK2a, CaMK4, CDC2/CDK1 (cycB), CHK1, CHK2, c-Met kinase, CSK, EphB4 kinase, ERK1, ERK2 (P42mapk), FGFR2 kinase, FGFR4 kinase, FLT-1 kinase (VEGFR1), FLT-3 kinase, Fyn kinase, IGF1R kinase, IRK (InsR), JNK 2, KDR kinase (VEGFR2), Lck kinase, Lyn kinase, MAPKAPK2, MEK1/MAP2K1, p38a kinase, p38d kinase, p38 g kinase, PDGFRb kinase, PDK1, PKA, PKCa, PKCb1, PKCb2, PKCg, Ret kinase, ROCK2, RSK2, Src kinase, Syk, and TRKA (Table 3).
Experiment [4] has as its target KDR kinase (VEGFR2) (Homo sapiens (Human), UniProt P35968). Nature of the experiment: Kinase selectivity assay (CEREP HTRF panel). It counts as biochemical.
Method: as §1
For experiment [5], the system named is HUV-EC-C cells. Nature of the experiment: In vitro angiogenesis assay (tube formation). It counts as cell-based. The settings on record: 4 hr. How it is done:
Activity against these RTKs can result in antiangiogenic activity which is associated with slowed tumor growth and/or tumor regression. To measure the antiangiogenic effects of compounds of the invention, selected examples were tested in an angiogenesis assay as described below.
HUV-EC-C cells were obtained from the American Type Culture Collection (ATCC, CRL-1730), and were used at early passage for the assay. The in vitro Angiogenesis Assay Kit (Chemicon) was used according to the manufacturer's recommendation. An ice-cold mixture of ECMatrix was transferred into a precooled 96-well plate. After the matrix solution had solidified (>1 hr incubation at 37° C.), 8,000 cells were mixed with the appropriate inhibitor concentration (in 100 microliters EGM-2) and plated into each well. The clinical antiangiogenic, Sutent was used as a positive control in comparison to a compound of the invention, A13. After incubation at 37° C. for 4 hr, tube formation was inspected. Two methods, pattern recognition and branch point counting, were used to quantify the progression of angiogenesis and expressed as a percentage of the control tube count (FIGS. 1 and 2).

Experiment [6] addresses PLK1 (Homo sapiens (Human), UniProt P53350). Nature of the experiment: PLK1 inhibition assay (Z-Lyte). Type of experiment: biochemical.
Method: PLK1 inhibition was determined using the Z-Lyte assay kit from Invitrogen (cat #PV3802). The assay was performed using the recommended manufacturer's instructions with 25 μM ATP and 8 nM PLK1 (Invitrogen cat #PV3501). The % inhibition values were determined according to the manufacturer's directions and IC50 values were obtained using a non-linear 4 point logistic curve fit (XLfit4, IDBS)
The target of experiment [7] is PLK2 (Homo sapiens (Human), UniProt Q9NYY3). The experiment in a line: PLK2 inhibition assay (Z-Lyte). Type of experiment: biochemical. The method, then:
PLK2 inhibition was determined using the Z-Lyte assay kit from Invitrogen (cat #PV3802). The assay was performed using the recommended manufacturer's instructions with 60 μM ATP and 133 nM PLK2 (Invitrogen cat #PV4204). The % inhibition values were determined according to the manufacturer's directions and IC50 values were obtained using a non-linear 4 point logistic curve fit (XLfit4, IDBS)

Experiment [8] addresses PLK3 (Homo sapiens (Human), UniProt Q9H4B4). The experiment in a line: PLK3 inhibition assay (Z-Lyte). It counts as biochemical. The method, then: PLK3 inhibition was determined using the Z-Lyte assay kit from Invitrogen (cat #PV3802). The assay was performed using the recommended manufacturer's instructions with 100 μM ATP and 21 nM PLK3 (Invitrogen cat #PV3812). The % inhibition values were determined according to the manufacturer's directions and IC50 values were obtained using a non-linear 4 point logistic curve fit (XLfit4, IDBS).

The target of experiment [9] is Abl (Homo sapiens (Human), UniProt P00519). It counts as biochemical. The settings on record: read-out: % Inhibition @ 0.1 μM, Abl.
For experiment [10], the target named is Abl (m) (Mus musculus (Mouse), UniProt P00520). Type of experiment: biochemical. The settings on record: read-out: % Inhibition @ 0.1 μM, Abl (m).
In experiment [11] the target is Abl (H396P) (Homo sapiens (Human), UniProt P00519, H396P). Type of experiment: biochemical. The settings on record: read-out: % Inhibition @ 0.1 μM, Abl (H396P).
For experiment [12], the target named is Abl (M351T) (Homo sapiens (Human), UniProt P00519, M351T). Type of experiment: biochemical. The settings on record: read-out: % Inhibition @ 0.1 μM, Abl (M351T).
The target in experiment [13] is Abl (Q252H) (Homo sapiens (Human), UniProt P00519, Q252H). Type of experiment: biochemical. As to conditions: read-out: % Inhibition @ 0.1 μM, Abl (Q252H).
Experiment [14] deals with Abl (T315I) (Homo sapiens (Human), UniProt P00519, T315I). Type of experiment: biochemical. As to conditions: read-out: % Inhibition @ 0.1 μM, Abl (T315I).
The target of experiment [15] is Abl (Y253F) (Homo sapiens (Human), UniProt P00519, Y253F). Type of experiment: biochemical. The settings on record: read-out: % Inhibition @ 0.1 μM, Abl (Y253F).
The target in experiment [16] is ALK (Homo sapiens (Human), UniProt Q9UM73). It counts as biochemical. The settings on record: read-out: % Inhibition @ 0.1 μM, ALK.
Experiment [17] deals with Arg (Homo sapiens (Human), UniProt P42684). Type of experiment: biochemical. The settings on record: read-out: % Inhibition @ 0.1 μM, Arg.
Experiment [18] concerns the target Arg (m) (Mus musculus (Mouse), UniProt Q4JIM5). It counts as biochemical. The settings on record: read-out: % Inhibition @ 0.1 μM, Arg (m).
For experiment [19], the target named is ARK5 (Homo sapiens (Human), UniProt O60285). It counts as biochemical. As to conditions: read-out: % Inhibition @ 0.1 μM, ARK5.
The target in experiment [20] is T1, Aurora A. Type of experiment: biochemical. As to conditions: read-out: % Inhibition @ 0.1 μM, Aurora-A.
For experiment [21], the target named is Bmx (Homo sapiens (Human), UniProt P51813). Type of experiment: biochemical. The settings on record: read-out: % Inhibition @ 0.1 μM, Bmx.
The target of experiment [22] is EphA1 (Homo sapiens (Human), UniProt P21709). Type of experiment: biochemical. As to conditions: read-out: % Inhibition @ 0.1 μM, EphA1.
For experiment [23], the target named is EphB1 (Homo sapiens (Human), UniProt P54762). Type of experiment: biochemical. The settings on record: read-out: % Inhibition @ 0.1 μM, EphB1.
In experiment [24] the target is FGFR1 (Homo sapiens (Human), UniProt P11362). It counts as biochemical. As to conditions: read-out: % Inhibition @ 0.1 μM, FGFR1.
Experiment [25] concerns the target FGFR1 (V561M) (Homo sapiens (Human), UniProt P11362, V561M). Type of experiment: biochemical. The settings on record: read-out: % Inhibition @ 0.1 μM, FGFR1 (V561M).
The target of experiment [26] is FGFR2 (Homo sapiens (Human), UniProt P21802). Type of experiment: biochemical. As to conditions: read-out: % Inhibition @ 0.1 μM, FGFR2.
Experiment [27] concerns the target FGFR2 (N549H) (Homo sapiens (Human), UniProt P21802, N549H). It counts as biochemical. The settings on record: read-out: % Inhibition @ 0.1 μM, FGFR2 (N549H).
Experiment [28] addresses FGFR3 (Homo sapiens (Human), UniProt P22607). It counts as biochemical. The settings on record: read-out: % Inhibition @ 0.1 μM, FGFR3.
The target in experiment [29] is GCK (Homo sapiens (Human), UniProt Q12851). It counts as biochemical. As to conditions: read-out: % Inhibition @ 0.1 μM, GCK.
In experiment [30] the target is IRAK1 (Homo sapiens (Human), UniProt P51617). It counts as biochemical. As to conditions: read-out: % Inhibition @ 0.1 μM, IRAK1.
Experiment [31] addresses Itk (Homo sapiens (Human), UniProt Q08881). Type of experiment: biochemical. As to conditions: read-out: % Inhibition @ 0.1 μM, Itk.
The target of experiment [32] is Lck (Homo sapiens (Human), UniProt P06239). It counts as biochemical. As to conditions: read-out: % Inhibition @ 0.1 μM, Lck.
Experiment [33] deals with Lck activated (Homo sapiens (Human), UniProt P06239). Type of experiment: biochemical. The settings on record: read-out: % Inhibition @ 0.1 μM, Lck activated.
Experiment [34] concerns the target MuSK (Homo sapiens (Human), UniProt O15146). It counts as biochemical. The settings on record: read-out: % Inhibition @ 0.1 μM, MuSK.
The target of experiment [35] is Ret (V804L) (Homo sapiens (Human), UniProt P07949, V804L). Type of experiment: biochemical. The settings on record: read-out: % Inhibition @ 0.1 μM, Ret (V804L).
For experiment [36], the target named is Ron (Homo sapiens (Human), UniProt Q04912). Type of experiment: biochemical. The settings on record: read-out: % Inhibition @ 0.1 μM, Ron.
In experiment [37] the target is Ros (Homo sapiens (Human), UniProt P08922). It counts as biochemical. The settings on record: read-out: % Inhibition @ 0.1 μM, Ros.
For experiment [38], the target named is Tie2 (Homo sapiens (Human), UniProt Q02763). Type of experiment: biochemical. As to conditions: read-out: % Inhibition @ 0.1 μM, Tie2.
Experiment [39] has as its target Tie2 (R849W) (Homo sapiens (Human), UniProt Q02763, R849W). Type of experiment: biochemical. The settings on record: read-out: % Inhibition @ 0.1 μM, Tie2 (R849W).
The target of experiment [40] is Tie2 (Y897S) (Homo sapiens (Human), UniProt Q02763, Y897S). Type of experiment: biochemical. As to conditions: read-out: % Inhibition @ 0.1 μM, Tie2 (Y897S).
The target of experiment [41] is TRKA (Homo sapiens (Human), UniProt P04629). Type of experiment: biochemical. As to conditions: read-out: % Inhibition @ 0.1 μM, TrkA.
The target in experiment [42] is Aurora B (Homo sapiens (Human), UniProt Q96GD4). The settings on record: read-out: % Inhibition @ 0.1 μM, Aurora-B.
The target in experiment [43] is T2, FLT3. As to conditions: read-out: % Inhibition @ 0.1 μM, Flt3.

T2 sequence (P36888 27-993): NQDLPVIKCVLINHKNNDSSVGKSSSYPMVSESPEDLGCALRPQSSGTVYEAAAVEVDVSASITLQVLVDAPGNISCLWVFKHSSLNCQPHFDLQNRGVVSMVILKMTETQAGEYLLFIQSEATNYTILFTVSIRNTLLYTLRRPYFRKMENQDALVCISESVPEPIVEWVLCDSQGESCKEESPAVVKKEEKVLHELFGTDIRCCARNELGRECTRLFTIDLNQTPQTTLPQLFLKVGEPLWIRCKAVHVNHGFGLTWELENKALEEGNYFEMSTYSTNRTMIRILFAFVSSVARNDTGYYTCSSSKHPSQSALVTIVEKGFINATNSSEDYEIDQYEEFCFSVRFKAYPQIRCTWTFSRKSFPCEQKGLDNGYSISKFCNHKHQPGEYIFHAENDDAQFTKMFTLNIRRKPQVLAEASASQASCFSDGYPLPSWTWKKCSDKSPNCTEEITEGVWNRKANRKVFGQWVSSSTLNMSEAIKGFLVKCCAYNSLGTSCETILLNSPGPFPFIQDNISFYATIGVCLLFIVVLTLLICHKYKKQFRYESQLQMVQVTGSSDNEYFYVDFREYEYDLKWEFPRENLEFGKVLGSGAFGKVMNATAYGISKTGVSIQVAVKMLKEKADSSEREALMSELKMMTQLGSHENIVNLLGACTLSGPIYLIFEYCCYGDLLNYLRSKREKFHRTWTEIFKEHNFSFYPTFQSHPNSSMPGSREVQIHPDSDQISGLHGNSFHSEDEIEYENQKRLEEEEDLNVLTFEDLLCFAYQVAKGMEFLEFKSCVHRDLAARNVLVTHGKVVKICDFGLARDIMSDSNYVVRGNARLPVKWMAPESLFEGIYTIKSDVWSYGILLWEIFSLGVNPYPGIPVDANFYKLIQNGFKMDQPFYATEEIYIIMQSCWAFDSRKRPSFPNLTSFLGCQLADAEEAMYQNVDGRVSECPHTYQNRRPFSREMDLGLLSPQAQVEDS
T1 sequence (O14965 whole entry): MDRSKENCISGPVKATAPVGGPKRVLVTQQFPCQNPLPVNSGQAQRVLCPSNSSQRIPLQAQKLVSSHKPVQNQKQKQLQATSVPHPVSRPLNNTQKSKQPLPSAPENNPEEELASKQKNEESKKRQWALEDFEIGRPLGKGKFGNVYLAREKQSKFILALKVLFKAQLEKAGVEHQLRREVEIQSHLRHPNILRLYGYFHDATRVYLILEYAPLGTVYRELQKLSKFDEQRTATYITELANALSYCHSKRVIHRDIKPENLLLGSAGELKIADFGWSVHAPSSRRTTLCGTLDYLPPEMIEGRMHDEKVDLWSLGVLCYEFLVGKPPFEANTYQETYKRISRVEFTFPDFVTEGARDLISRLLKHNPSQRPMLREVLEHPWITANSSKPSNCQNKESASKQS
Sequence of Abl (m) (P00520 whole entry): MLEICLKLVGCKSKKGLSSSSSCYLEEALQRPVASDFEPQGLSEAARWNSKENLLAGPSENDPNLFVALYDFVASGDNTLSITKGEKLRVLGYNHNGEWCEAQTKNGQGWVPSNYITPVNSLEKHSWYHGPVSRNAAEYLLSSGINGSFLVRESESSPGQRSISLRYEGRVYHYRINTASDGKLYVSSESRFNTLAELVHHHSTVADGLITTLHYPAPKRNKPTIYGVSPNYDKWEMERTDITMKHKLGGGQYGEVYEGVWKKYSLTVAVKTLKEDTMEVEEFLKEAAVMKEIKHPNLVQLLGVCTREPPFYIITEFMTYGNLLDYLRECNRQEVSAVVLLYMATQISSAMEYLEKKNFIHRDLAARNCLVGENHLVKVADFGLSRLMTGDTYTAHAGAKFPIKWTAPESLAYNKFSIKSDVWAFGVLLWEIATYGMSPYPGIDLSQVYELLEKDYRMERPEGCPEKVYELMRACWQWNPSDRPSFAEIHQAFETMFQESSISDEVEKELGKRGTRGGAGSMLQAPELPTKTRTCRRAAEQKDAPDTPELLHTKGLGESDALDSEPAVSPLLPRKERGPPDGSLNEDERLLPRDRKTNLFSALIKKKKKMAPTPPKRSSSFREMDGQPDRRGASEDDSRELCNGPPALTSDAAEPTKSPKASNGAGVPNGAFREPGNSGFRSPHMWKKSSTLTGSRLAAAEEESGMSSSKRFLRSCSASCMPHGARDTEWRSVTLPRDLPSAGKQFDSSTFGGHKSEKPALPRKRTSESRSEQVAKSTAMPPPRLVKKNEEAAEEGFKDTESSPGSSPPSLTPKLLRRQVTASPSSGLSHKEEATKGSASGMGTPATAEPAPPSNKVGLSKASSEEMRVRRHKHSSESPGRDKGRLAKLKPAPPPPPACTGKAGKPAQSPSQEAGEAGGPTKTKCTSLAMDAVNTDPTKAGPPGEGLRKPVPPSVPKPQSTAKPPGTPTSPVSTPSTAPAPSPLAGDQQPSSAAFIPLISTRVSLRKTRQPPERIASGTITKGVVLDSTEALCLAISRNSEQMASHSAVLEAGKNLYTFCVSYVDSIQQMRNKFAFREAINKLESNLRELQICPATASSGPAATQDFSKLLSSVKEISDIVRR
Sequence of ARK5 (O60285 whole entry): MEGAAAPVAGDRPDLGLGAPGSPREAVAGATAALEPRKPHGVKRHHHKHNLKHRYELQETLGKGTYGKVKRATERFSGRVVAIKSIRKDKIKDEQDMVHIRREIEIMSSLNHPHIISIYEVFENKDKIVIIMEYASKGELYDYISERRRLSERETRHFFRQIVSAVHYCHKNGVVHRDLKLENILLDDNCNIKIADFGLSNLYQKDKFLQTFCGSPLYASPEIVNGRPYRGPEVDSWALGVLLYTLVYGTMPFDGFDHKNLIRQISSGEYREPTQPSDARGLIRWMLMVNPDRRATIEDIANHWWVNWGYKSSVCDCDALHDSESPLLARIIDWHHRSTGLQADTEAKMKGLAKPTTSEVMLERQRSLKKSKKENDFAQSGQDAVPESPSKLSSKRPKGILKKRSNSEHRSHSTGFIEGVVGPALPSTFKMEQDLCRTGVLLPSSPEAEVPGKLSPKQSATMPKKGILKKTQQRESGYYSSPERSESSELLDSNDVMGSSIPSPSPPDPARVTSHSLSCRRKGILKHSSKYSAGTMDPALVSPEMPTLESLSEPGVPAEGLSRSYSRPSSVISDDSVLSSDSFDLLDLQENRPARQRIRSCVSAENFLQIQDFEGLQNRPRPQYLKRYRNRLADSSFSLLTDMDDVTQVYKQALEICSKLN
Sequence of FGFR2 (N549H) (P21802 22-821 N549H): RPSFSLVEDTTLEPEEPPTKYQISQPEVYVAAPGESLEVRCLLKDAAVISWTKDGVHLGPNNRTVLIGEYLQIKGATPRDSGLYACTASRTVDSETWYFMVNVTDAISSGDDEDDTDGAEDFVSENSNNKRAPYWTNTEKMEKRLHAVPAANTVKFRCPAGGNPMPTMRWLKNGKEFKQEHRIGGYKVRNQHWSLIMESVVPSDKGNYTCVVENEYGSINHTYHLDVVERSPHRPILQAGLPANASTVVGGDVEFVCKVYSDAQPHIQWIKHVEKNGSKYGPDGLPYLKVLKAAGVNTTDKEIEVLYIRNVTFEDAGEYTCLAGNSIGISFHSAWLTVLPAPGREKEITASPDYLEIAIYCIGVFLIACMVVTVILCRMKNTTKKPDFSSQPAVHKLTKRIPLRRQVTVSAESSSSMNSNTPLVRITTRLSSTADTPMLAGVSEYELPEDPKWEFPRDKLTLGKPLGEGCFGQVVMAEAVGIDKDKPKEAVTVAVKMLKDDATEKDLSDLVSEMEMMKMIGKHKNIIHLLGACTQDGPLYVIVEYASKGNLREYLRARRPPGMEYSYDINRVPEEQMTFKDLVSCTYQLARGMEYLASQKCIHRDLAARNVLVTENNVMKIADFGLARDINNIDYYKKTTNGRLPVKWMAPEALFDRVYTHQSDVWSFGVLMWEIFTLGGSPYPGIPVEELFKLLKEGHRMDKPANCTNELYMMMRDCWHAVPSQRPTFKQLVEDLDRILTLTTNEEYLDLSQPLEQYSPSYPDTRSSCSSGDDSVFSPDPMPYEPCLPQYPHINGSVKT
Sequence of FGFR1 (P11362 22-822): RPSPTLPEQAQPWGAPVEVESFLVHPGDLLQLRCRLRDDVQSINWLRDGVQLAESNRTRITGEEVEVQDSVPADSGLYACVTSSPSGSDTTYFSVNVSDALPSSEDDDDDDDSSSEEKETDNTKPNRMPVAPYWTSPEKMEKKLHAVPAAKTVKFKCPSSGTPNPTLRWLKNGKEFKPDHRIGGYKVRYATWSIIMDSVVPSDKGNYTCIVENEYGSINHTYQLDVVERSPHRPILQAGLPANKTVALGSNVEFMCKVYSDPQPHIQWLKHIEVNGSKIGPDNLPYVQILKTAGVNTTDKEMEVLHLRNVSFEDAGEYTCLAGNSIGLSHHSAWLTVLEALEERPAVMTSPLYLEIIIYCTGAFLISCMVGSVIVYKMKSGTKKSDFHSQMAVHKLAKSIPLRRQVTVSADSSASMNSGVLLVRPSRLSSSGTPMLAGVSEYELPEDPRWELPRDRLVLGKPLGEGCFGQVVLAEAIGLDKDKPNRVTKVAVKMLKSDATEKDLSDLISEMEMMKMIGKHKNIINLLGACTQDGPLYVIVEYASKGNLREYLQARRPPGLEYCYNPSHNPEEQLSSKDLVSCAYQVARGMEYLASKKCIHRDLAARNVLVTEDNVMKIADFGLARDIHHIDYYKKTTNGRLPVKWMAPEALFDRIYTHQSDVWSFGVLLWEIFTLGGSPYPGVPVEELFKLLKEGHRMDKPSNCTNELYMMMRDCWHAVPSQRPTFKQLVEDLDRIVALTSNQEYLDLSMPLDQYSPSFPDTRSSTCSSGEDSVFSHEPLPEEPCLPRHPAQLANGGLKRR
Sequence of FGFR2 (P21802 22-821): as the sequence (P21802 22-821 N549H) above, with H528N counted along it
Sequence of FGFR1 (V561M) (P11362 22-822 V561M): as the sequence (P11362 22-822) above, with V540M counted along it

Regarding `COc1ccc2c(c1)[C@]1(C[C@H]1c1ccc3c(-c4ccc(N5CCN(C)CC5)nc4)n[nH]c3c1)C(=O)N2` (relative stereo) [Example A13, (1R*,2S*)-5′-Methoxy-2-(3-(6-(4-methylpiperazin-1-yl)pyridin-3-yl)-1H-indazol-6-yl)spiro[cyclopropane-1,3′-indolin]-2′-one], in [1], the inhibition at 1 µM was less than 50%. Besides, the “% Inhibition @ 10 uM, AMPKalpha” value in experiment [2] is 8%. Moreover, the inhibition at 10 µM in [3] is 86%; in experiment [4], 6%. Besides, the “anti-angiogenic effect (tube formation)” value in [5] is reported as “anti-agiogenic effects at submicromolar concentrations”.

Turning to `CN(C)Cc1ccc(/C=C/c2n[nH]c3cc([C@@H]4C[C@@]45C(=O)Nc4ccccc45)ccc23)cc1` (relative stereo) [Example A23, (1R*,2S*)-(E)-2-(3-(4-((dimethylamino)methyl)styryl)-1H-indazol-6-yl)spiro[cyclopropane-1,3′-indolin]-2′-one 2,2,2-trifluoroacetate], the inhibition at 10 µM in experiment [6], in experiment [7] and in experiment [8] was not above 50% in each case. Further, the “anti-angiogenic effect (tube formation)” value in [5] is “anti-agiogenic effects at submicromolar concentrations”.

On to `COc1ccc2c(c1)[C@]1(C[C@H]1c1ccc3c(-c4ccc(N5CCN(C)CC5)cc4)n[nH]c3c1)C(=O)N2` [Example A39, (1R,2S)-5′-methoxy-2-(3-(4-(4-methylpiperazin-1-yl)phenyl)-1H-indazol-6-yl)spiro[cyclopropane-1,3′-indolin]-2′-one hydrochloride], for which the inhibition at 0.1 µM turned out to be 68% in experiment [9]; 82% in experiment [10]; 77% in [11]; 77% in experiment [12]; 59% in experiment [13]; 90% in experiment [14]. Further, the inhibition at 0.1 µM came to 43% in experiment [15]; 20% in [16]; 61% in [17]; 58% in [18]; 23% in experiment [19]; 70% in [20]. Further, the inhibition at 0.1 µM in [21] came to 35%; in experiment [22] it was 17%; in [23], 15%; in [24], 10%; in experiment [25], 18%; in [26] it was 34%. Moreover, the inhibition at 0.1 µM in experiment [27] is 38%; in experiment [28], 60%; in experiment [29] it was 16%; in experiment [30] it was 49%; in experiment [31], 9%; in [32], -3%. Further, the inhibition at 0.1 µM is 62% in [33]; 72% in experiment [34]; 24% in experiment [35]; 3% in experiment [36]; 17% in experiment [37]; 32% in experiment [38]. Moreover, the inhibition at 0.1 µM in [39] is 38%; in experiment [40] it was 40%; in experiment [41] it was 93%; in [42], 102%; in experiment [43], 2%.

These data come from patent US10358436B2, “Kinase inhibitors and method of treating cancer” (University Health Network, priority 2010, dated 2019).
